Patent US20190153024A1, “NOVEL SALTS AND POLYMORPHS OF SCY-078” (priority 2015, published 2019)

What was measured:
[1] = pH value of saturated SCY-078 salt solutions in water; type: physicochemical; settings: saturated salt solution in H2O, room temperature; for pH 1 hr: equilibrated 1 hour; for pH 24 hrs: equilibrated 24 hours
Method: To test the pH, a solution of each compound was equilibrated at room temperature using a rolling incubator (25 rpm) for 1 hour and 24 hours before measurement.

[2] = Dynamic Vapor Sorption (DVS) water uptake; type: physicochemical; settings: for solid form by XRPD after DVS: after DVS experiment
Method: Dynamic Vapor Sorption (DVS)—The term “DVS” means the procedure described in below. The relative humidity at 25° C. was calibrated against deliquescence point of LiCl, Mg(NO3)2 and KCl.
The DVS of SCY-078 salts were tested according to the above method, using a 10-20 mg sample size. The DVS was measured using a Surface Measurement Systems (SMS) DVS Intrinsic.

[3] = Chemical and physical stability of SCY-078 salts on storage (25° C./60% RH, 40° C./75% RH, 60° C.); type: physicochemical; settings: Type M 4 days, Type S 1 week
Source text: For all compounds tested other than the trifluoroacetate salts (Type A and B) and the HCl Type I and II salts, the conditions and parameters used for measuring solubility are shown in Table 2A and for measuring stability are showing in Table 3A. The conditions and parameters used for the solubility of the trifluoroacetate salts (Type A and B) and the HCl Type I and II salts are shown in Table 2B and for stability are shown in Table 3B.

[4] = Physical and chemical stability of trifluoroacetate Types A and B and HCl Type I for 1, 2, 4 and 8 weeks; type: physicochemical
Method: High Power Liquid Chromatography (HPLC) Method—An Agilent 1260 HPLC with DAD detector was utilized to test solubility or to test purity and stability. […] System suitability was tested by injecting standard solutions five times in each sample sequence, and the relative standard deviation of the peak areas was less than 2%.
Physical and chemical stability evaluation of trifluoroacetate Type A, trifluoroacetate Type B, and HCl Type I was performed at 25° C./60% RH, 40° C./75% RH and 60° C. for 1, 2, 4 and 8 weeks. In the experiments, approximately 20 mg of solid was placed into a 1.5-mL glass vial. The vials were stored under 25° C./60% RH (uncapped), 40° C./75% RH (uncapped) and 60° C. (capped) conditions for 8 weeks. XRPD analysis was then employed to check the crystalline form of the solid, and HPLC was utilized to determine the purity profile at 1, 2, 4 and 8 weeks. […] The solid form change of trifluoroacetate Type A at 2 and 4 weeks was postulated to the air-exposure when the sample was taken out for XRPD characterization.

[5] = Kinetic solubility of trifluoroacetate Types A and B and HCl Type I (alternative procedure: SGF, FaSSIF and FeSSIF alternative media, acetate pH 5.5, phosphate pH 6.0 alternative media); settings: for Form change: residual solid by XRPD
Method: An alternative media (“FaSSIF alternative media”) was used to study the trifluoroacetate salts (Type A and B) and the HCl Type I salt. More specifically, the media was prepared by weighing 0.17 g of sodium phosphate monobasic (NaH2PO4, anhydrous), 0.021 g of sodium hydroxide, and 0.31 g of sodium chloride into a 50-mL volumetric flask and was dissolve with approximately 48 mL of purified water. The pH was adjusted to exactly 6.5 using 1 M HCl or 1 M NaOH and diluted to volume with purified water. 0.11 g of SIF powder was then added, stirred and sonicated until all the powder was completely dissolved. The solution was equilibrated for 2 hours at RT before use. The solution can be stored at RT for 48 hours or 4° C. for 7 days and should be equilibrated to RT before use
An alternative media (“FeSSIF alternative media”) was used to study the trifluoroacetate salts (Type A and B) and the HCl Type I salt. More specifically, the media was prepared by transferring 0.41 mL of glacial acid and weighing 0.20 g of sodium hydroxide, 0.59 g of sodium chloride into a 50-mL volumetric flask. This was dissolved with approximately 48 mL of purified water. The pH was adjusted to exactly 5.0 using 1 M HCl or 1 M NaOH and diluted to volume with purified water. 0.56 g of SIF powder was added, stirred and sonicated until all the powder is completely dissolved. The solution can be stored at RT for 48 hours or 4° C. for 7 days and should be equilibrated to RT before use.
Acetate Buffer (pH 5.5) Preparation—The acetate buffer (pH 5.5) used for the trifluoroacetate salts (Type A and B) and the HCl Type I salt was prepared by placing 0.60 g sodium acetate (NaC2H3O2.3H2O) in a 100-mL volumetric flask, adding 3 mL of 2 M acetic acid solution, and then adding purified water to volume.
An alternative media (“phosphate (pH 6.0) alternative media”) was used to study the trifluoroacetate salts (Type A and B) and the HCl Type I salt. More specifically, the media was prepared by dissolving 2.72 g of 0.2 M monobasic potassium phosphate (KH2PO4) in purified water, and diluting with purified water t 100 mL. 0.8 g of 0.2 M sodium hydroxide in purified water was diluted with purified water to 100 mL. Then 50 mL of the 0.2 M monobasic potassium phosphate solution was placed in a 200-mL volumetric flask, 5.6 mL of 0.2 M sodium hydroxide solution was added, and then purified water was added to volume.
The trifluoroacetate salts (Type A and B) and the HCl Type I salt were tested using the following alternative procedure. First, 15 mg, 36 mg or 90 mg solid was weighted into a 4-mL plastic tube, and 3 mL of relevant media was added before leaving the suspension on a rolling incubator (25 r/min). For SCF, 90 mg of solid was used. For FaSSIF, acetate buffer (pH 5.5), and phosphate buffer (pH 6.0), 15 mg solid was used. For FeSSIF, 36 mg of solid was used. 1.0 mL aliquot of the suspension was sampled for centrifugation with the supernatant submitted for HPLC and pH measurement and solid for XRPD characterization at 1 hr, 4 hr and/or 24 hrs.
The solubility of trifluoroacetate Type A, Type B and HCl Type I was measured in SGF at ambient temperature. Approximately 90 mg of solid sample was weighted into a 4-mL centrifuge tube, and 3 mL of SGF buffer was added before leaving the suspension on a rolling incubator (25 r/min). 1.0 mL aliquot of the suspension was sampled for centrifugation (10000 rpm, 3 mins) the supernatant was analyzed by HPLC and pH measurement and solid by XRPD characterization at 1 hr, 4 hr and 24 hrs, respectively.
The solubility of trifluoroacetate Type A, Type B and hydrochloride Type I was measured in the FaSSIF alternative media at ambient temperature. Approximately 15 mg of solid sample was weighted into a 4-mL plastic tube, and 3 mL of the media was added before leaving the suspension on a rolling incubator (25 r/min).

[6] = 25° C./60% RH (uncapped), 1 week
[7] = 25° C./60% RH (uncapped), 2 weeks
[8] = 25° C./60% RH (uncapped), 4 weeks
[9] = 25° C./60% RH (uncapped), 8 weeks
[10] = 40° C./75% RH (uncapped), 1 week
[11] = 40° C./75% RH (uncapped), 2 weeks
[12] = 40° C./75% RH (uncapped), 4 weeks
[13] = 40° C./75% RH (uncapped), 8 weeks

CC(C)[C@@H](C)[C@@]1(C)CC[C@]2(C)[C@H]3CC[C@@H]4[C@@]5(COC[C@]4(C)[C@@H](OC[C@](C)(N)C(C)(C)C)[C@H](n4ncnc4-c4ccncc4)C5)C3=CC[C@@]2(C)[C@@H]1C(=O)O.O=C(O)CNC(=O)c1ccccc1.O=C(O)CNC(=O)c1ccccc1 [SCY-078 hippurate Type B]
pH 1 hr [1]: 4.6 | pH 24 hrs [1]: 4.2 | water uptake (DVS) ([2]; 25° C., 80% RH): ~3.5% | solid form by XRPD after DVS [2]: converted to SCY-078 hippurate Type A

CC(C)[C@@H](C)[C@@]1(C)CC[C@]2(C)[C@H]3CC[C@@H]4[C@@]5(COC[C@]4(C)[C@@H](OC[C@](C)(N)C(C)(C)C)[C@H](n4ncnc4-c4ccncc4)C5)C3=CC[C@@]2(C)[C@@H]1C(=O)O.CS(=O)(=O)O [SCY-078 mesylate Type A]
pH 1 hr [1]: 3.4 | pH 24 hrs [1]: 3.6 | water uptake (DVS) ([2]; 25° C., 80% RH): 11.5% | solid form by XRPD after DVS [2]: no form change

CC(C)[C@@H](C)[C@@]1(C)CC[C@]2(C)[C@H]3CC[C@@H]4[C@@]5(COC[C@]4(C)[C@@H](OC[C@](C)(N)C(C)(C)C)[C@H](n4ncnc4-c4ccncc4)C5)C3=CC[C@@]2(C)[C@@H]1C(=O)O.O=C(O)CC(O)(CC(=O)O)C(=O)O [SCY-078 citrate Type M]
physical and chemical stability ([3]; closed dish 60° C.): impurity of SCY-078 citrate Type M increased | physical and chemical stability ([3]; open dish 25° C., 60% RH): physically and chemically stable | physical and chemical stability ([3]; open dish 40° C., 75% RH): One diffraction peak change and partial crystallinity loss | water uptake (DVS) ([2]; 25° C., 80% RH): 11.0% | solid form by XRPD after DVS [2]: converts to partially amorphous

CC(C)[C@@H](C)[C@@]1(C)CC[C@]2(C)[C@H]3CC[C@@H]4[C@@]5(COC[C@]4(C)[C@@H](OC[C@](C)(N)C(C)(C)C)[C@H](n4ncnc4-c4ccncc4)C5)C3=CC[C@@]2(C)[C@@H]1C(=O)O.O=C(O)CC(O)(CC(=O)O)C(=O)O [SCY-078 citrate Type S]
physical and chemical stability ([3]; closed dish 60° C.): physically and chemically stable | physical and chemical stability ([3]; open dish 25° C., 60% RH): Diffraction peak shifts were observed | physical and chemical stability ([3]; open dish 40° C., 75% RH): Diffraction peak shifts were observed | water uptake (DVS) ([2]; 25° C., 80% RH): 8.2% | solid form by XRPD after DVS [2]: peak shifts

CC(C)[C@@H](C)[C@@]1(C)CC[C@]2(C)[C@H]3CC[C@@H]4[C@@]5(COC[C@]4(C)[C@@H](OC[C@](C)(N)C(C)(C)C)[C@H](n4ncnc4-c4ccncc4)C5)C3=CC[C@@]2(C)[C@@H]1C(=O)O.O=P(O)(O)O [SCY-078 phosphate Type A]
pH 1 hr [1]: 3.4 | pH 24 hrs [1]: 3.6 | water uptake (DVS) ([2]; 25° C., 80% RH): 12.5% | solid form by XRPD after DVS [2]: no form change

CC(C)[C@@H](C)[C@@]1(C)CC[C@]2(C)[C@H]3CC[C@@H]4[C@@]5(COC[C@]4(C)[C@@H](OC[C@](C)(N)C(C)(C)C)[C@H](n4ncnc4-c4ccncc4)C5)C3=CC[C@@]2(C)[C@@H]1C(=O)O.Cl [SCY-078 HCl Type I]
water uptake (DVS) ([2]; 25° C./80% RH): 6.1 wt % | solid form by XRPD after DVS [2]: No form change | HPLC purity [4, 6]: 99.9% | Solid form [4, 6]: Type I | HPLC purity [4, 7]: 99.9% | Solid form [4, 7]: Type I | HPLC purity [4, 8]: 99.9% | Solid form [4, 8]: Type I | HPLC purity [4, 9]: 99.9% | Solid form [4, 9]: Type I | physical and chemical stability ([4]; 25° C./60% RH, 40° C./75% RH and 60° C., 8 weeks): physically and chemically stable | HPLC purity [4, 10]: 99.9% | Solid form [4, 10]: Type I | HPLC purity [4, 11]: 99.9% | Solid form [4, 11]: Type I | HPLC purity [4, 12]: 99.9% | Solid form [4, 12]: Type I | HPLC purity [4, 13]: 99.9% | Solid form [4, 13]: Type I | HPLC purity ([4]; 60° C. (capped), 1 week): 99.9% | Solid form ([4]; 60° C. (capped), 1 week): Type I | HPLC purity ([4]; 60° C. (capped), 2 weeks): 99.9% | Solid form ([4]; 60° C. (capped), 2 weeks): Type I | HPLC purity ([4]; 60° C. (capped), 4 weeks): 99.9% | Solid form ([4]; 60° C. (capped), 4 weeks): Type I | HPLC purity ([4]; 60° C. (capped), 8 weeks): 99.9% | Solid form ([4]; 60° C. (capped), 8 weeks): Type I | Initial HPLC purity ([4]; Initial): 99.9% | Form change ([5]; FaSSIF alternative media, 1 hr): No | Form change ([5]; FaSSIF alternative media, 4 hrs): No | Form change ([5]; FaSSIF alternative media, 24 hrs): No | form change of residual solid in FaSSIF alternative media ([5]; FaSSIF alternative media, ambient temperature): no form change was observed | Form change ([5]; FeSSIF alternative media, 1 hr): No | Form change ([5]; FeSSIF alternative media, 4 hrs): No | Form change ([5]; FeSSIF alternative media, 24 hrs): No | form change of residual solid in FeSSIF alternative media ([5]; FeSSIF alternative media, ambient temperature): no form change was observed | Form change ([5]; SGF, 1 hr): No | Form change ([5]; SGF, 4 hrs): No | Form change ([5]; SGF, 24 hrs): No | form change of residual solid in SGF ([5]; SGF, ambient temperature): no form change was observed | form change of residual solid in acetate buffer ([5]; acetate buffer pH 5.5, ambient temperature): converted to Type II | solubility in acetate buffer (comparison) ([5]; acetate buffer pH 5.5, ambient temperature, 4 hr and 24 hrs): lower solubility | Form change ([5]; phosphate (pH 6.0) alternative media, 4 hrs): No | Form change ([5]; phosphate (pH 6.0) alternative media, 24 hrs): No | form change of residual solid in phosphate (pH 6.0) alternative media ([5]; phosphate (pH 6.0) alternative media, ambient temperature): No form change was observed | solubility in phosphate (pH 6.0) alternative media (comparison) ([5]; phosphate (pH 6.0) alternative media, ambient temperature, 4 hr and 24 hrs): higher solubility
